A short description of series [1]: Inhibition of RANKL-induced NFkappaB signaling pathway in mouse RAW264.7 cells assessed as reduction in NFkappaB p65 phosphorylation preincubated for 4 hrs followed by RANKL stimulation for 10 mins and measured by Western blot analysis. The class given is cell-based. The settings on record: dose 1-10 µM, time 250.0 min.
For series [2], the system named is Mus musculus. In words: Antiosteoporotic activity against OVX-induced bone loss C57BL/6 mouse model assessed as restoration of E2 level in serum at 10 mg/kg, po QD for 4 weeks. The class given is functional, organism-based. As to conditions: dose 10.0 mg/kg/day.
The target in series [3] is c-Jun N-terminal kinase (Mus musculus) (UniProt Q91Y86+Q9WTU6+Q61831). Kind of series: Inhibition of RANKL-induced JNK phosphorylation in mouse RAW264.7 cells at 1 to 10 uM pretreated for 4 hrs prior to RANKL stimulation for 20 mins by western blot analysis. In kind it is cell-based. The settings on record: dose 1-10 µM, time 260.0 min. Background: Immunoblotting shows a protein as a band on a membrane.
c-Jun N-terminal kinase (Mus musculus), sequence (Q61831 whole entry, looked up): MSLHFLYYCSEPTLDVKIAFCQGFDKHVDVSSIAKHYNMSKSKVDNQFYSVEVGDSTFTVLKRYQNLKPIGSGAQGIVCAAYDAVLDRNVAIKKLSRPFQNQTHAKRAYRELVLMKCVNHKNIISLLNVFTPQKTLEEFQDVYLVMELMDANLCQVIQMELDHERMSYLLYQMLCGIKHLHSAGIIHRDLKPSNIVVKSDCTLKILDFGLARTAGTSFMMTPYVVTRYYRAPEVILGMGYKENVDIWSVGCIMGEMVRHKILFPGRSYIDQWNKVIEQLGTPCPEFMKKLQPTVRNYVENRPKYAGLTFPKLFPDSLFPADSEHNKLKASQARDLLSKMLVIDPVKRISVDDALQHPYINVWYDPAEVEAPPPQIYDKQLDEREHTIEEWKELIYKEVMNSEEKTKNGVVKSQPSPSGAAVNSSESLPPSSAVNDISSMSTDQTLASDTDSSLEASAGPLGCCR
c-Jun N-terminal kinase (Mus musculus), sequence (Q91Y86 whole entry, looked up): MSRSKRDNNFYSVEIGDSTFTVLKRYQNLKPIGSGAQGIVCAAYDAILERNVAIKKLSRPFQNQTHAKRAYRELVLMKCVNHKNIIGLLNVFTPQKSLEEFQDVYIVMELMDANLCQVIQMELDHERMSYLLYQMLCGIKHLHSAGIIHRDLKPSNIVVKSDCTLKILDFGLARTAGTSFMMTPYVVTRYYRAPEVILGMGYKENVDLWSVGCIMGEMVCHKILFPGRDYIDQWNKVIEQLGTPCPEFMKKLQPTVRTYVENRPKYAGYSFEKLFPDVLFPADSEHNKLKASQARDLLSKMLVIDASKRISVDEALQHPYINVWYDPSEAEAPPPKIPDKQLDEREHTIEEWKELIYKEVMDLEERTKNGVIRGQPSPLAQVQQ
c-Jun N-terminal kinase (Mus musculus), sequence (Q9WTU6 whole entry, looked up): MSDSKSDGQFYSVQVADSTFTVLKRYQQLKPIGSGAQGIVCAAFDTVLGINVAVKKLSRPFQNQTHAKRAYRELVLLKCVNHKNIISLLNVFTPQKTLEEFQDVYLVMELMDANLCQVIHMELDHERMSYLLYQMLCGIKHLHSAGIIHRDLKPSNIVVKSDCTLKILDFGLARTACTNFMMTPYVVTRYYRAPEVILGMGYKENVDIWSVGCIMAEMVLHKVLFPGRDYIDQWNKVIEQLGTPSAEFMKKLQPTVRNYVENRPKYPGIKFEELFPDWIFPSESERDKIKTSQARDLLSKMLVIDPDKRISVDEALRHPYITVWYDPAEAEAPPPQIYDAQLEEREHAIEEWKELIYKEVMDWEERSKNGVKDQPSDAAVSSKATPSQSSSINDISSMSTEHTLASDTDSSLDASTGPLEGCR

A short description of series [4]: Toxicity in OVX-induced bone loss C57BL/6 mouse model assessed as effect on serum AST level at 10 mg/kg, po QD for 4 weeks. The class given is organism-based. As to conditions: in vivo, 672 h, dose 10 mg/kg/day.
Series [5] relates to Mus musculus. Kind of series: Antiosteoporotic activity against OVX-induced bone loss C57BL/6 mouse model assessed as increase in trabecular thickness in femoral metaphysis at 10 mg/kg, po QD for 4 weeks. The class given is functional, organism-based. The settings on record: dose 10.0 mg/kg/day.
A further series concerns RAW264.7. Kind of series: Effect on NFkappaB p65 expression in RANKL-stimulated mouse RAW264.7 cells at 1 to 10 uM preincubated for 4 hrs followed by RANKL stimulation for 10 mins and measured by Western blot analysis. In kind it is functional. The settings on record: dose 1-10 µM, time 250.0 min.
Series [6] relates to BMMC. Kind of series: Cytotoxicity against C57BL/6 mouse BMM cells assessed as reduction in cell viability at 30 uM measured after 48 hrs in presence of M-CSF by CCK8 assay. In kind it is cell-based. Background: Tetrazolium assays rely on reduction of a dye to a coloured formazan, in cell work by metabolically active cells.
Series [7] deals with BMMC. Kind of series: Downregulation of osteoclastogenesis-associated gene expression in C57BL/6 mouse BMM cells assessed as inhibition of M-CSF/RANKL-induced TRAcP expression at 5 uM after 5 days by qRT-PCR analysis. The class given is functional, cell-based. As to conditions: time 5.0 day. In general terms: In qPCR the cycle at which signal appears reflects the starting amount.

Series [8] relates to Mus musculus. Kind of series: Antiosteoporotic activity against OVX-induced bone loss C57BL/6 mouse model assessed as decrease in ACP5 level in serum at 10 mg/kg, po QD for 4 weeks. In kind it is functional, organism-based. The settings on record: dose 10.0 mg/kg/day.
Series [9] in a line: Toxicity in OVX-induced bone loss C57BL/6 mouse model assessed as effect on serum CHO level at 10 mg/kg, po QD for 4 weeks. In kind it is organism-based. As to conditions: in vivo, 672 h, dose 10 mg/kg/day.
In series [10] the test system is Mus musculus. In words: Antiosteoporotic activity against OVX-induced bone loss C57BL/6 mouse model assessed as increase in trabecular bone mass in femoral metaphysis at 10 mg/kg, po QD for 4 weeks by microCT analysis. The settings on record: dose 10.0 mg/kg/day. The class given is functional, organism-based.

Active and inactive are the calls of the source. The calls are words filed in the database; no cut-off is given here.

With `C=C1CC[C@@H]2[C@](C)(CNCc3ccc(F)cc3)[C@H](O)CC[C@@]2(C)[C@@H]1/C=C/C1=CCOC1=O`, the inhibition result in [1] is “Dose-Dependent Effect”. Also, the outcome with Mus musculus [2], in the series with Mus musculus [5], with Mus musculus [8] and in the series with Mus musculus [10] was Active. Further, the inhibition result in series [3] was “inactive”. For the same compound, the Activity result (in [4]; in the series on BMMC [6]; in [9]) was “Non-Toxic” in each case. Further, the result in the series with RAW264.7 was inactive. The inhibition entry in the series with BMMC [7] was “Active”.

The values above are taken from ChEMBL document CHEMBL4819024, “Synthesis and evaluation of andrographolide derivatives as potent anti-osteoporosis agents in vitro and in vivo” (Eur J Med Chem, 2021).
